Experimental data: patent US8435929B2, “1-aminocyclopropane carboxylic acid as a fruit thinner” (Valent BioSciences Corporation, priority 2009, dated 2013)

Legend:
PF-27 peaches = assay: Field thinning study, ACC and ABA, fruit set of PF-27 peaches; type: in vivo, peach; details: 1000 ppm, application at shuck split
Text: Application of ACC alone at shuck split reduced fruit set in a dose dependent manner (Table 10).

Babygold #5 peach = assay: Field thinning study, fruit set of Babygold #5 peach; type: in vivo; details: rate not given, 10 mm fruitlet timing
cotton cotyledons = assay: Cotton cotyledon bioassay, ethylene production; type: in vivo
Text: For laboratory and growth chamber studies, deionized ultra-pure water was used in preparing solutions. Spray solutions were used as soon as possible after mixing. All spray solutions were amended with spray adjuvants as appropriate. A cotton cotyledon bioassay was used in the laboratory to study the effects of ACC or ethephon on induction of ethylene. Ten day old cotton plants with fully expanded cotyledons were used. Sprays were made to the upper (adaxial) surface of the leaves and the plants were then incubated in growth cabinets at the temperatures indicated. The cotyledons were excised at the times indicated and placed in sealed plastic vials. Headspace ethylene samples were measured on a Hewlett Packard 5890 gas chromatograph equipped with a packed Haysep T column (Alltech, Deerfield, Ill.) and a flame ionization detector.
Selected characteristics of ACC conversion to ethylene (i.e. dose response, time course, and temperature effect) were assessed to determine whether the relative consistence of ACC as a stone fruit and apple thinner was related to performance as an ethylene producer. In these bioassays, ACC solutions were applied to cotton cotyledons by a hand sprayer at the doses indicated and all spray solutions contained 0.05% (v/v) L-77.
In the first study, the effect of ACC dose sprays on ethylene produced by cotton cotyledons was determined. (Table 16). Cotton plants were sprayed with solution (ACC at 1, 10, 25, 50, 100, 250, 500, or 1000 ppm) and the cotyledons were excised 6 or 24 h after spraying and incubated in sealed tubes for 4 h. Ethylene levels were determined production was assayed.
In the second study, the time course of ethylene production following application of 500 mg/liter ACC or ethephon was determined (Table 17).
In the third study, the effect of temperature on ethylene production following ACC or ethephon application was determined (Table 18). The incubation of the plants following spraying and the incubation of the detached leaves were performed at 25 and 35° C.

Babygold #5 peaches = assay: Scaffold gummosis rating of Babygold #5 peaches; type: in vivo, peach
Text: Gummosis is a physiological stress response in which sap oozes from fractures in tree bark and often leads to tree decline. Use of 2-chloroethylphosphonic acid as a stone fruit thinning has been limited because it can stimulate severe incidences of gummosis of stone fruit.

SMILES	Crop load (percent) of treated trees compared to the untreated control (PF-27 peaches) [%]	Percent fruit set (PF-27 peaches) [%]	Percent Fruit Set (Babygold #5 peach) [%]	Ethylene production (cotton cotyledons; 200 ppm, 24 h after application, incubated at 25 C)	Ethylene production (cotton cotyledons; 200 ppm, 24 h after application, incubated at 35 C)	Ethylene production (cotton cotyledons; 500 ppm, 1 h following spray application, 25 C (time course))	Ethylene production (cotton cotyledons; 500 ppm, 4 h following spray application, 25 C (time course))	Ethylene production (cotton cotyledons; 500 ppm, 15 h following spray application, 25 C (time course))	Ethylene production (cotton cotyledons; 500 ppm, 24 h following spray application, 25 C (time course))	Ethylene production (cotton cotyledons; 500 ppm, 48 h following spray application, 25 C (time course))	Gummosis (in words) (Babygold #5 peaches; Babygold #5 peaches, Table 11 study)	Scaffold Gummosis (0 = no gummosis to 5 = severe gummosis) (Babygold #5 peaches; rate not given, 10 mm fruitlet timing, scale 0-5)
CC1=CC(=O)CC(C)(C)[C@@]1(O)/C=C/C(C)=C\C(=O)O [ABA, abscisic acid, reference compound]	80	69	–	–	–	–	–	–	–	–	–	–
O=P(O)(O)CCCl [Ethephon, 2-chloroethylphosphonic acid, reference compound]	–	–	8.4	41.0 nl/g leaf weight/h incubated	133.1 nl/g leaf weight/h incubated	153.4 nl/g leaf weight/h incubated	102.5 nl/g leaf weight/h incubated	106.0 nl/g leaf weight/h incubated	90.8 nl/g leaf weight/h incubated	58.5 nl/g leaf weight/h incubated	substantially increased gummosis	4.7
